# Legend:
# [1] = test system: AGSST (creeping bentgrass); test: Pre-emergence herbicidal activity, cool season; assay type: in vivo, Agrostis stolonifera; conditions: GR80 = lowest tested rate (300, 100, 30, 10 g/ha) with 80% or greater inhibition; approx. 14 days after treating; 18/13° C.
# Description: (§1) Tables 5 to 8 summarize results of tests conducted as described below to determine the pre-emergence herbicidal activity, in the form of a GR80 value, of illustrative compounds of this invention. […] Compounds of the invention were typically applied at rates of 300, 100, 30, and 10 g/ha. Where herbicidal activity was evident but 80% inhibition was not achieved at the highest rate tested, an asterisk (*) is shown in the following tables.
# (§2) The pre-emergence tests were conducted by the following procedure. Topsoil was sieved to pass through a 1.27 cm screen. Fertilizer was added to the topsoil and the mixture was then sterilized by heating. The topsoil mixture was placed in a pot and compacted to a depth of 1.0 to 1.25 cm from the top of the pot. Seeds of each of several monocotyledonous and dicotyledonous annual plant species were placed on top of the soil. Additional soil was subsequently placed over the seeds to level-fill the pot. A known amount of each test compound dissolved or suspended in an appropriate organic solvent was diluted with a 50:50 mix of acetone and water and applied to the surface of the soil. After treatment the plants were placed in a greenhouse where they received 0.64 cm of overhead irrigation. All subsequent watering consisted of a light overhead mist and/or subirrigation as needed for germination and growth. Tables 5 and 6 below relate to warm season plant species which were placed after pre-emergence treatment in a greenhouse with a 30/21° C. day/night temperature regime. Tables 7 and 8 below relates to cool season plant species placed after pre-emergence treatment in a greenhouse or growth chamber with an 18/13° C. day/night temperature regime.
# (§3) Approximately 14 days after planting and treating, the plants were observed and herbicidal efficacy recorded as percent inhibition by comparison with untreated plants.
# (§4) The plant species usually regarded as weeds which were utilized in the tests are identified in the tables below according to the following legend, in which “d” indicates a dicotyledonous species and “m” a monocotyledonous species. All monocotyledonous species included in the tests herein are grasses.
# [2] = test system: PANMI (wild proso millet); test: Pre-emergence herbicidal activity, warm season; assay type: in vivo, Panicum miliaceum; conditions: GR80 = lowest tested rate (300, 100, 30, 10 g/ha) with 80% or greater inhibition; approx. 14 days after treating; 30/21° C.
# Description: as §1, §2, §3, §4
# [3] = test system: VERPE (creeping speedwell); test: Pre-emergence herbicidal activity, cool season; assay type: in vivo, Veronica persicaria; conditions: lowest tested rate with 80% or greater inhibition; rates 300, 100, 30, 10 g/ha; about 14 days
# Description: as §1, §2, §3, §4
# [4] = test system: DIGSA (large crabgrass); test: Pre-emergence herbicidal activity, warm season; assay type: in vivo, Digitaria sanguinalis; conditions: GR80 = lowest tested rate (300, 100, 30, 10 g/ha) with 80% or greater inhibition; approx. 14 days after treating; 30/21° C.
# Description: as §1, §2, §3, §4
# [5] = test system: POLCO (wild buckwheat); test: Pre-emergence herbicidal activity, cool season; assay type: in vivo, Polygonum convolvulus; conditions: lowest tested rate with 80% or greater inhibition; rates 300, 100, 30, 10 g/ha; about 14 days
# Description: as §1, §2, §3, §4
# [6] = test system: POROL (common purslane); test: Pre-emergence herbicidal activity, warm season; assay type: in vivo, Portulaca oleracea; conditions: GR80 = lowest tested rate (300, 100, 30, 10 g/ha) with 80% or greater inhibition; approx. 14 days after treating; 30/21° C.
# Description: as §1, §2, §3, §4
# [7] = test system: STEME (common chickweed); test: Pre-emergence herbicidal activity, cool season; assay type: in vivo, Stellaria media; conditions: lowest tested rate with 80% or greater inhibition; rates 300, 100, 30, 10 g/ha; about 14 days
# Description: as §1, §2, §3, §4
# [8] = test system: GALAP (catchweed bedstraw); test: Pre-emergence herbicidal activity, cool season; assay type: in vivo, Galium aparine; conditions: lowest tested rate with 80% or greater inhibition; rates 300, 100, 30, 10 g/ha; about 14 days
# Description: as §1, §2, §3, §4
# [9] = test system: SORHA (johnsongrass (seedling)); test: Pre-emergence herbicidal activity, warm season; assay type: in vivo, Sorghum halepense; conditions: GR80 = lowest tested rate (300, 100, 30, 10 g/ha) with 80% or greater inhibition; approx. 14 days after treating; 30/21° C.
# Description: as §1, §2, §3, §4
# [10] = test system: ECHCG (barnyardgrass); test: Pre-emergence herbicidal activity, warm season; assay type: in vivo, Echinochloa crus-galli; conditions: GR80 = lowest tested rate (300, 100, 30, 10 g/ha) with 80% or greater inhibition; approx. 14 days after treating; 30/21° C.
# Description: as §1, §2, §3, §4
# [11] = test system: SASKR (russian thistle); test: Pre-emergence herbicidal activity, cool season; assay type: in vivo, Salsola kali; conditions: lowest tested rate with 80% or greater inhibition; rates 300, 100, 30, 10 g/ha; about 14 days
# Description: as §1, §2, §3, §4
# [12] = test system: SINAR (wild mustard); test: Pre-emergence herbicidal activity, cool season; assay type: in vivo, Sinapis arvensis; conditions: lowest tested rate with 80% or greater inhibition; rates 300, 100, 30, 10 g/ha; about 14 days
# Description: as §1, §2, §3, §4
# [13] = test system: LAMPU (purple deadnettle); test: Pre-emergence herbicidal activity, cool season; assay type: in vivo, Lamium purpureum; conditions: lowest tested rate with 80% or greater inhibition; rates 300, 100, 30, 10 g/ha; about 14 days
# Description: as §1, §2, §3, §4
# [14] = test system: BRAPP (broadleaf signalgrass); test: Pre-emergence herbicidal activity, warm season; assay type: in vivo, Brachiaria platyphylla; conditions: GR80 = lowest tested rate (300, 100, 30, 10 g/ha) with 80% or greater inhibition; approx. 14 days after treating; 30/21° C.
# Description: as §1, §2, §3, §4
# [15] = test system: AMARE (redroot pigweed); test: Pre-emergence herbicidal activity, warm season; assay type: in vivo, Amaranthus retroflexus; conditions: GR80 = lowest tested rate (300, 100, 30, 10 g/ha) with 80% or greater inhibition; approx. 14 days after treating; 30/21° C.
# Description: as §1, §2, §3, §4
# [16] = test system: CHEAL (common lambsquarters); test: Pre-emergence herbicidal activity, warm season; assay type: in vivo, Chenopodium album; conditions: GR80 = lowest tested rate (300, 100, 30, 10 g/ha) with 80% or greater inhibition; approx. 14 days after treating; 30/21° C.
# Description: as §1, §2, §3, §4
# [17] = test system: SETFA (giant foxtail); test: Pre-emergence herbicidal activity, warm season; assay type: in vivo, Setaria faberi; conditions: GR80 = lowest tested rate (300, 100, 30, 10 g/ha) with 80% or greater inhibition; approx. 14 days after treating; 30/21° C.
# Description: as §1, §2, §3, §4
# [18] = test system: SETVI (green foxtail); test: Pre-emergence herbicidal activity, cool season; assay type: in vivo, Setaria viridis; conditions: GR80 = lowest tested rate (300, 100, 30, 10 g/ha) with 80% or greater inhibition; approx. 14 days after treating; 18/13° C.
# Description: as §1, §2, §3, §4
# [19] = test system: ALOMY (blackgrass); test: Pre-emergence herbicidal activity, cool season; assay type: in vivo, Alopecurus myosuroides; conditions: GR80 = lowest tested rate (300, 100, 30, 10 g/ha) with 80% or greater inhibition; approx. 14 days after treating; 18/13° C.
# Description: as §1, §2, §3, §4
# [20] = test system: SOLNI (black nightshade); test: Pre-emergence herbicidal activity, warm season; assay type: in vivo, Solanum nigrum; conditions: GR80 = lowest tested rate (300, 100, 30, 10 g/ha) with 80% or greater inhibition; approx. 14 days after treating; 30/21° C.
# Description: as §1, §2, §3, §4
# [21] = test system: CIRAR (canada thistle (seedling)); test: Pre-emergence herbicidal activity, warm season; assay type: in vivo, Cirsium arvense; conditions: GR80 = lowest tested rate (300, 100, 30, 10 g/ha) with 80% or greater inhibition; approx. 14 days after treating; 30/21° C.
# Description: as §1, §2, §3, §4
Structure (SMILES),Pre-emergence activity (GR80) AGSST [1],Pre-emergence activity (GR80) PANMI [2],"Pre-emergence activity GR80, VERPE [3]",Pre-emergence activity (GR80) DIGSA [4],"Pre-emergence activity GR80, POLCO [5]",Pre-emergence activity (GR80) POROL [6],"Pre-emergence activity GR80, STEME [7]","Pre-emergence activity GR80, GALAP [8]",Pre-emergence activity (GR80) SORHA [9],Pre-emergence activity (GR80) ECHCG [10],"Pre-emergence activity GR80, SASKR [11]","Pre-emergence activity GR80, SINAR [12]","Pre-emergence activity GR80, LAMPU [13]",Pre-emergence activity (GR80) BRAPP [14],Pre-emergence activity (GR80) SETFA [17],Pre-emergence activity (GR80) SETVI [18],Pre-emergence activity (GR80) ALOMY [19],also measured
CN(C)C(=O)n1cnc(S(=O)(=O)C(F)(F)Br)n1 [Example 37],100 g/ha,300 g/ha,[empty],300 g/ha,[empty],300 g/ha,300 g/ha,[empty],300 g/ha,300 g/ha,[empty],[empty],300 g/ha,,,,,
O=C(N1CCCC1)n1cnc(S(=O)(=O)C(F)(F)C(F)F)n1 [Example 59],300 g/ha,100 g/ha,[empty],30 g/ha,300 g/ha,,300 g/ha,100 g/ha,100 g/ha,300 g/ha,[empty],[empty],100 g/ha,100 g/ha,300 g/ha,300 g/ha,300 g/ha,Pre-emergence activity (GR80) AMARE [15]: 100 g/ha; Pre-emergence activity (GR80) CHEAL [16]: 100 g/ha; Pre-emergence activity (GR80) SOLNI [20]: 300 g/ha; Pre-emergence activity (GR80) CIRAR [21]: 300 g/ha
COCCN(C)C(=O)n1cnc(S(=O)(=O)C(F)(F)C(F)F)n1 [Example 64],100 g/ha,100 g/ha,30 g/ha,300 g/ha,100 g/ha,300 g/ha,100 g/ha,300 g/ha,,,10 g/ha,100 g/ha,300 g/ha,300 g/ha,300 g/ha,100 g/ha,300 g/ha,

# Source: US6461997B1, “Triazole sulfones having herbicidal activity” (Monsanto Technology LLC, priority 1999, dated 2002)
